system: human NPY-Y7 receptors; assay: Competitive displacement of [125I]PYY on membranes of COSm6 cells transiently expressing human NPY-Y7 receptors; type: binding; conditions: COS-6 or HEX (293) cells transiently expressing recombinant Y7 receptor protein; FIG. 2
Description: The results were obtained through competitive displacement of [^125I]PYY on membranes of COSm6 cells transiently expressing human NPY-Y7 receptors. Membranes were incubated with [^125I]PYY (50 pM) and increasing concentrations of peptide competitors. Data are representative of a single experiment with each point measured in triplicate.
These experiments were conducted using COS-6 or HEX (293) cells transiently expressing recombinant Y7 receptor protein.
pcDNA3.1-hy7 cDNA was transiently transfected into the COSm6 cell line using FUGENE and […] of DNA/106 cells. The COSm6 cells were grown in Dulbecco's modified Eagles medium supplemented with 2 mM glutamine and 10% fetal calf serum, in 5% CO2 at 37° C. Membranes were harvested with COSm6 cells 72hr post-transfection. Adherent cells were washed twice in ice-cold phosphate buffered saline and lysed using a glass homogeniser in ice-cold hypotonic buffer (50 mM Tris-HCl, pH 7.4, 0.1% bacitracin). Membranes were pelleted by high speed centrifugation (30,000×g, 15 min 4° C.), homogeniser again in ice-cold hypotonic buffer and collected again by high speed centrifugation (30,000×g, 15 min, 4° C.). […] Samples were incubated at room temperature for 2hr. Incubations were terminated by centrifugation (4 min) and pellets collected. Radioactivity was measured for 1 min in a g counter.

Substance | affinity of the protein encoded by the hy7 cDNA (radio-ligand binding)
PYY: peptide YY, 36 amino acids, member of the pancreatic polypeptide family | highest affinity

same assay, conditions: inhibition of [125I]PYY (50 pM) binding, COSm6 membranes, single experiment, triplicate points

Substance | rank of potency for the Y7 receptor
(Leu31, Pro34)NPY: NPY-related peptide competitor, NPY analogue with Leu31 and Pro34 | PYY>NPY>[2-36]PYY>[3-36]NPY>[13-36]NPY>>(Leu31, Pro34)NPY>PP
Neuropeptide Y [NPY] | PYY>NPY>[2-36]PYY>[3-36]NPY>[13-36]NPY>>(Leu31, Pro34)NPY>PP
PYY: peptide YY, 36 amino acids, member of the pancreatic polypeptide family | PYY>NPY>[2-36]PYY>[3-36]NPY>[13-36]NPY>>(Leu31, Pro34)NPY>PP
[2-36]PYY: NPY-related peptide competitor, PYY fragment 2-36 | PYY>NPY>[2-36]PYY>[3-36]NPY>[13-36]NPY>>(Leu31, Pro34)NPY>PP
[3-36]NPY: NPY-related peptide competitor, NPY fragment 3-36 | PYY>NPY>[2-36]PYY>[3-36]NPY>[13-36]NPY>>(Leu31, Pro34)NPY>PP
[13-36]NPY: NPY-related peptide competitor, NPY fragment 13-36 | PYY>NPY>[2-36]PYY>[3-36]NPY>[13-36]NPY>>(Leu31, Pro34)NPY>PP

Reference: patent US6803232B1, “NPY-Y7 receptor gene” (The Garvan Institute of Medical Research, priority 1998, dated 2004)
